Values belong to the compound of their own block, whether it stands above or below them. Active and inactive are the calls of the source.
Columns and labels:
[1] = target: Alkaline phosphatase, placental type (Homo sapiens, UniProt P05187); assay: human placental alkaline phosphatase inhibition – biochemical, luminescence, confirmation (AID 1512); type: functional
[2] = target: T1, Alkaline phosphatase, tissue-nonspecific isozyme (Homo sapiens, UniProt P05186); assay: potency against alkaline phosphatase TNAP – biochemical, luminescent, dose response, SAR follow-up (AID 1056)
T1 sequence (P05186 whole entry): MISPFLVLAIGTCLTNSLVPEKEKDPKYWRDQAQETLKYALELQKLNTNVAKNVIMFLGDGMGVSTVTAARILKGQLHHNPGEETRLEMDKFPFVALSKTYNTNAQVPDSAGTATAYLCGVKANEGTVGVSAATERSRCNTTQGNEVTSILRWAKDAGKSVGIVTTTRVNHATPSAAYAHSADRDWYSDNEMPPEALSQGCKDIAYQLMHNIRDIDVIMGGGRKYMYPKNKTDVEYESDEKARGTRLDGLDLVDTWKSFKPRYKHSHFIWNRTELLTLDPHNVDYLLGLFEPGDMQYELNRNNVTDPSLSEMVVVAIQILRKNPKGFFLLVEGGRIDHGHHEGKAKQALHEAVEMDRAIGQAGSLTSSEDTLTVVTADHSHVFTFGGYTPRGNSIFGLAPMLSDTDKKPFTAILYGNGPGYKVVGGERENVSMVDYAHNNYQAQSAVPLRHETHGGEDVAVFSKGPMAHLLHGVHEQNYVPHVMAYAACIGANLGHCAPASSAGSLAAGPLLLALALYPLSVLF

[3] = target: Glyceraldehyde-3-phosphate dehydrogenase (Homo sapiens, UniProt P04406)
[4] = target: Troponin, cardiac muscle (Homo sapiens, UniProt P19429+P45379+P63316); assay: compounds desensitizing RTF to calcium – biochemical, fluorescence, cardiac regulated thin filaments, triplicate IC50, dose response (AID 504742); type: protein-complex assay
[5] = test system: INS1; assay: INS-1E survival protection against cytokine death – cell-based, luminescence, retest, dose response (AID 449756); type: functional; conditions: Rattus norvegicus;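 note: cell death triggered by IL-1 beta plus TNF-alpha plus IFN-gamma mixture; protective hits raise ATP signal compared with cytokine alone wells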
[6] = target: Caspase-7 (Homo sapiens, UniProt P55210); assay: potency of procaspase-7 enzyme activation – biochemical, absorbance, human, dual procaspase-3/-7 activator project, dose response (AID 504330)
[7] = target: T2, Caspase-3 (Homo sapiens, UniProt P42574); assay: activators of human procaspase-3 D3A mutant – biochemical, absorbance, PC-3 D3A mutant, counter-screen for dual procaspase-3/7 activator project, dose response (AID 504328)
T2 sequence (P42574 whole entry): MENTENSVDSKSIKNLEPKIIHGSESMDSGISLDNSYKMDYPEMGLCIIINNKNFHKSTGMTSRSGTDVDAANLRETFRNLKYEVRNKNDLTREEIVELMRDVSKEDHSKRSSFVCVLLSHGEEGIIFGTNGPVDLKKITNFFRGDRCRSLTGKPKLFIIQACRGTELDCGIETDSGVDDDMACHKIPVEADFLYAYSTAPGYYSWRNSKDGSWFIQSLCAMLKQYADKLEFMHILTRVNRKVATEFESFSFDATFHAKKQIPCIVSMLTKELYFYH

IC50 [1]: > 100 µM (inactive)
IC50 [2]: > 100 µM (inactive)
IC50 [3]: > 100 µM (not active)
Compound: COc1ccc(-c2cc(-c3ccc4ccccc4c3O)n[nH]2)cc1

Compound: COc1cccc(/C=N/Nc2nc3ccccc3n3cnnc23)c1O
IC50 [4]: 7.6 µM (active)
AC50 [5]: 1.84 µM (active)

EC50 [6]: > 85.3 µM (inactive)
EC50 [7]: > 85.3 µM (inactive)
Compound: COc1ccc2c(c1OC)C(=O)OC2CC(=O)c1ccc(N(C)C)cc1 (configuration not stated)

— ChEMBL document CHEMBL1201862, “PubChem BioAssay data set” (2004)
